For 1 compound, Activity, inhibition and IC50 results are on record in ChEMBL document CHEMBL4342507, “Targeting YAP Degradation by a Novel 1,2,4-Oxadiazole Derivative via Restoration of the Function of the Hippo Pathway” (ACS Med Chem Lett, 2020).

The pIC50 is the IC50 on a negative log10 scale, so that one unit is a factor of ten.

The nature of series [1]: Acute toxicity in athymic Nude-Foxn1nu BALB/c mouse xenografted with human MDA-MB-231 cells assessed as effect on serum ALT level at 200 mg/kg, po administered once daily via gavage for 14 days. The settings on record: in vivo, 336 h. It counts as organism-based. A general note: In xenograft studies the graft and the host belong to different species.
Series [2] in a line: Acute toxicity in athymic Nude-Foxn1nu BALB/c mouse xenografted with human MDA-MB-231 cells assessed as effect on blood urea nitrogen level at 200 mg/kg, po administered once daily via gavage for 14 days. In kind it is organism-based. The settings on record: in vivo, 336 h.
Series [3] relates to SUM-159-PT. Put plainly: Effect on MST1 expression in human SUM159 cells at 0.25 to 1.5 uM measured after 12 hrs by Western blot analysis. It counts as functional, cell-based.
For a further series, the system named is PC-9. Put plainly: Downregulation of TAZ protein expression in human PC9 cells at 0.25 to 1.5 uM measured after 12 to 24 hrs by immunoblotting analysis. It counts as functional, cell-based. On the technique in general: Immunoblotting shows a protein as a band on a membrane.
A short description of series [4]: Acute toxicity in athymic Nude-Foxn1nu BALB/c mouse xenografted with human MDA-MB-231 cells assessed as effect on serum total bilirubin level at 200 mg/kg, po administered once daily via gavage for 14 days. In kind it is organism-based. Particulars: in vivo, 336 h.
Series [5] has as its target T1, Serine/threonine-protein kinase LATS1 (Homo sapiens) (UniProt O95835).
T1 sequence (whole entry): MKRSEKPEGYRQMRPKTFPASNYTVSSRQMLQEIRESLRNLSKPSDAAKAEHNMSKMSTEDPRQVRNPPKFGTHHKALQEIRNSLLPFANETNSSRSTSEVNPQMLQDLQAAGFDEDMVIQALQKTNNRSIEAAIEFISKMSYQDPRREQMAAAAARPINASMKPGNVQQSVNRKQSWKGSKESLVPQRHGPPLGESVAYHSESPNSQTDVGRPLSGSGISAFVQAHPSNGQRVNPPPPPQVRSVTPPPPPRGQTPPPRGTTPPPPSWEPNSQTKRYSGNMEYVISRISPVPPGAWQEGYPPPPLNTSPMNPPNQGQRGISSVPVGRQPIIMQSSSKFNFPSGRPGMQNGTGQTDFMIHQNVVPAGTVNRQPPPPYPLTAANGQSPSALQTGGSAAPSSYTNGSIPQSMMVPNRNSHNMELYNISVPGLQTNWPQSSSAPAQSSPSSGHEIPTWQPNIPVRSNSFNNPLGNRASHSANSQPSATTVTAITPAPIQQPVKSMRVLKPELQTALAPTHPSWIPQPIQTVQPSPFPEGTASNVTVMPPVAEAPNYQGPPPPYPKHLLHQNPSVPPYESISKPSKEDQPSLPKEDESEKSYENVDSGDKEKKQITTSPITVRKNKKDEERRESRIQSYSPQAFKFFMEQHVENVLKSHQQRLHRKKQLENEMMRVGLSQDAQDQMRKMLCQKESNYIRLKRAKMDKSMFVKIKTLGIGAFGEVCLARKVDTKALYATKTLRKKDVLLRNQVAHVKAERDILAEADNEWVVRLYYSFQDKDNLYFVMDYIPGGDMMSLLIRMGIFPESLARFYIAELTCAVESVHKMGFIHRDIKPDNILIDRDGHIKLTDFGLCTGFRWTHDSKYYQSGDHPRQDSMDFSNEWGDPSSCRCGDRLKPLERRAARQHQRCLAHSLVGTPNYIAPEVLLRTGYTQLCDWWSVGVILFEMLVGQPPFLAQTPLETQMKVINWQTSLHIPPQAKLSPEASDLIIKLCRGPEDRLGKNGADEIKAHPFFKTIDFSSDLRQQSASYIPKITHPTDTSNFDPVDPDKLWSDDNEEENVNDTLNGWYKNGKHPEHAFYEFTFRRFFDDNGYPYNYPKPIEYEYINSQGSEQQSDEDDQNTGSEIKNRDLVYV
Briefly: Activation of LATS1 in human MDA-MB-231 cells assessed as induction of YAP degradation by measuring suppression of YAP protein expression at 0.5 uM pretreated with compound for 24 hrs followed by incubation with protein synthesis inhibitor, CHX up to 48 hrs by Western blot analysis. It counts as cell-based.

The target of series [6] is T1, Serine/threonine-protein kinase LATS1 (Homo sapiens). Put plainly: Activation of LATS1 in human SUM159 cells assessed as induction of YAP degradation by measuring suppression of YAP protein expression at 0.25 to 1.5 uM measured after 12 to 24 hrs by immunoblotting analysis. In kind it is cell-based.
For series [7] the target is unchanged. Put plainly: Activation of LATS1 in human SUM159 cells assessed as increase in YAP phosphorylation at Ser397 at 0.25 to 1.5 uM measured after 24 to 48 hrs by immunoblotting analysis. It counts as cell-based.
For series [8] the target is unchanged. Briefly: Activation of LATS1 in human SUM159 cells assessed as increase in phosphorylation at Ser909 residue measured after 12 hrs by Western blot analysis. It counts as cell-based.
Series [9] deals with SUM-159-PT. Briefly: Cytotoxicity against human SUM159 cells assessed as reduction in cell viability measured after 72 hrs by MTT assay. In kind it is functional, cell-based. On the technique in general: Formazan colour is commonly taken as a measure of viable cells.
Another series deals with MDA-MB-231. Put plainly: Downregulation of TAZ protein expression in human MDA-MB-231 cells at 0.25 to 1.5 uM measured after 24 to 48 hrs by immunoblotting analysis. It counts as functional, cell-based.
Series [10] concerns the target Serine/threonine-protein kinase 3/4 (Homo sapiens) (UniProt Q13043+Q13188). Briefly: Activation of MST1/2 in human MDA-MB-231 cells assessed as effect on phosphorylation at T183/T180 residues at 0.25 to 1.5 uM measured after 24 hrs by Western blot analysis. In kind it is cell-based.
For a further series, the species on record is Homo sapiens. Briefly: Activation of MOB in human SUM159 cells assessed as phosphorylation at Thr35 residue at 0.25 to 1.25 uM measured after 12 hrs by Western blot analysis. It counts as cell-based.
Series [11] concerns PC-3. Briefly: Effect on MST2 expression in human PC3 cells at 0.25 to 1.5 uM measured after 24 hrs by Western blot analysis. It counts as functional, cell-based.
The target of series [12] is T1, Serine/threonine-protein kinase LATS1 (Homo sapiens). Briefly: Activation of LATS1 in triple-negative human SUM159 cells assessed as induction of YAP degradation by measuring suppression of YAP protein expression at 0.25 to 1 uM measured after 12 hrs in presence of 10 uM proteosomal inhibitor, MG132 by Western blot analysis.
Series [13] deals with PC-3. Briefly: Cytotoxicity against human PC3 cells assessed as reduction in cell viability measured after 72 hrs by MTT assay. It counts as functional, cell-based.
Series [14] has as its target Hepatocyte growth factor receptor (Homo sapiens) (UniProt P08581). Put plainly: Induction of c-MET degradation in human MDA-MB-231 cells assessed as suppression of c-MET expression at 0.1 to 0.8 uM by Western blot analysis. In kind it is cell-based.
In series [15] the test system is PC-3. Put plainly: Effect on MST1 expression in human PC3 cells at 0.25 to 1.5 uM measured after 24 hrs by Western blot analysis. In kind it is functional, cell-based.
Series [16] is described as follows: Acute toxicity in athymic Nude-Foxn1nu BALB/c mouse xenografted with human MDA-MB-231 cells assessed as effect on body weight at 200 mg/kg, po administered once daily via gavage for 40 days and measured twice a week during treatment period. In kind it is organism-based. Particulars: in vivo, 960 h.
In series [17] the target is T1, Serine/threonine-protein kinase LATS1 (Homo sapiens). Briefly: Activation of LATS1 in human PC3 cells assessed as increase in YAP phosphorylation at Ser397 at 0.25 to 1.5 uM measured after 12 to 24 hrs by immunoblotting analysis. In kind it is cell-based.

pIC50: −log10 of the molar value. The source made the active and inactive calls. The rule behind the calls is not given here.

Serine/threonine-protein kinase 3/4 (Homo sapiens), sequence (Q13043 whole entry, looked up): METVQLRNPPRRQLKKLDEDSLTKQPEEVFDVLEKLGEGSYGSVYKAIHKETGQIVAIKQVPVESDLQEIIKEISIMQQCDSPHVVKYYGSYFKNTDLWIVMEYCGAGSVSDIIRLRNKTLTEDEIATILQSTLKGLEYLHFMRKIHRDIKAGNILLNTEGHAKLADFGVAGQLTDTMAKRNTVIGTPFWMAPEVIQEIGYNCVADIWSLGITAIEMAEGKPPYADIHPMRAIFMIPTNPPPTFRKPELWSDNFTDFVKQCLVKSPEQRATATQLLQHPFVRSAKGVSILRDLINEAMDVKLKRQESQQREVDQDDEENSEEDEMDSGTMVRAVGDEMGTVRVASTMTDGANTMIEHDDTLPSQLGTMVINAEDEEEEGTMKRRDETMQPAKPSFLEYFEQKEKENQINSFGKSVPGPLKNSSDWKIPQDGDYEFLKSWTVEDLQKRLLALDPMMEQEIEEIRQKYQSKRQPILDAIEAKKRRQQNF
Serine/threonine-protein kinase 3/4 (Homo sapiens), sequence (Q13188 whole entry, looked up): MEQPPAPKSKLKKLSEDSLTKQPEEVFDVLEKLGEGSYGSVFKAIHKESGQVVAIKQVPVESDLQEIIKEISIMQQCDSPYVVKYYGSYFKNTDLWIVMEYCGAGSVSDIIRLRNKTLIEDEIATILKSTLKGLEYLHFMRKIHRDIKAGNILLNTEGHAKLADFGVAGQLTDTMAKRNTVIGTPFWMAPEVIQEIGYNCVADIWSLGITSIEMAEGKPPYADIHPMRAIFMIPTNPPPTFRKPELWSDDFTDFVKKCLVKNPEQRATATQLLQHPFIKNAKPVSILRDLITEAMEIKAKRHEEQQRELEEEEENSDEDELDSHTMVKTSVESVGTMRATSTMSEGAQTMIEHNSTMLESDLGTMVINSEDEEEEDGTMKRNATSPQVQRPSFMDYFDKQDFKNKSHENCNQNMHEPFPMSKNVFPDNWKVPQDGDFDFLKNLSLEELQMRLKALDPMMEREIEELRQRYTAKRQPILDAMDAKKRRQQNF
Hepatocyte growth factor receptor (Homo sapiens), sequence (P08581 whole entry): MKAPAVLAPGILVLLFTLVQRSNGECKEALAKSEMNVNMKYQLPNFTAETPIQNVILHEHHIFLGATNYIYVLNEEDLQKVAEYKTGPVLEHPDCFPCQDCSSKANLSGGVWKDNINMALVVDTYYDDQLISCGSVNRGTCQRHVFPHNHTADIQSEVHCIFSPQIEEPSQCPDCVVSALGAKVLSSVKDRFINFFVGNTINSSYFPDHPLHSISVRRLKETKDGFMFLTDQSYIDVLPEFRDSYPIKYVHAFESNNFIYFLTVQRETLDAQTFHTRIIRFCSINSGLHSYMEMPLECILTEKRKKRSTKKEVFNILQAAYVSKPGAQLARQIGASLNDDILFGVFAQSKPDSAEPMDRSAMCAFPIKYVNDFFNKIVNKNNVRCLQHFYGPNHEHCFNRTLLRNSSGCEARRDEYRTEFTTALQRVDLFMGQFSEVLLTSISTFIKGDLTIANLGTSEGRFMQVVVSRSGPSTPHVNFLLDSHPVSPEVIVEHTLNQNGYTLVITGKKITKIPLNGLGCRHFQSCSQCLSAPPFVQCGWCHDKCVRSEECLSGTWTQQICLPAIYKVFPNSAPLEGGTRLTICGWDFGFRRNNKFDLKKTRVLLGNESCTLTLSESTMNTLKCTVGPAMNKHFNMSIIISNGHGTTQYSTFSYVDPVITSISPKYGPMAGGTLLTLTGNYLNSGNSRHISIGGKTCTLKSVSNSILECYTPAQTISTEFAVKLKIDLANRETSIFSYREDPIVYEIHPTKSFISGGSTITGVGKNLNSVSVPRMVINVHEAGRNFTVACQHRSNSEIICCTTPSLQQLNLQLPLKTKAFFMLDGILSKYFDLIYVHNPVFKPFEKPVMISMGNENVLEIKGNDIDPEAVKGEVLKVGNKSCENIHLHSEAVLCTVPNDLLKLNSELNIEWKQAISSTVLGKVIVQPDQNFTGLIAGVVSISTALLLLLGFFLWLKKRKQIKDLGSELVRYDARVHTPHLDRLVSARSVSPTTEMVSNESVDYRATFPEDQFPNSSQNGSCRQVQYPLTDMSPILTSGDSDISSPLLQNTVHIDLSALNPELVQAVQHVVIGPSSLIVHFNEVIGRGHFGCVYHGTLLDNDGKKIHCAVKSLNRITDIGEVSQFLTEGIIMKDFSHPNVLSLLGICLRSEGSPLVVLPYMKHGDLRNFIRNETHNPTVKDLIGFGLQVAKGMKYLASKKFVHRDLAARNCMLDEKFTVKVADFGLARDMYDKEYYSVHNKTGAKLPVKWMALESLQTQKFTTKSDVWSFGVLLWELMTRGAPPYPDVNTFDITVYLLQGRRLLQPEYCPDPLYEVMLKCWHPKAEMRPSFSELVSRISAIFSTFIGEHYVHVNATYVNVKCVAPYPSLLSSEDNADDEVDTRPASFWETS

As for `CC(=O)Nc1ccc(NC(=O)Nc2cccc(-c3nc(-c4ccc(NC(=O)c5cccnc5)cc4Cl)no3)c2)cc1C(F)(F)F`, the Activity entry in [1] is “Non-Toxic”; in [2] it was “Non-Toxic”; in [4], “Non-Toxic”; in [8], “Dose-dependent effect”; in the series on SUM-159-PT [9] it was “Dose-dependent effect”; with PC-3 [13], “Dose-dependent effect”. Also, the Activity entry in series [16] was “Non-Toxic”. Moreover, the outcome (with SUM-159-PT [3]; in [7]; in series [10]; in the series listed under Homo sapiens; with PC-3 [11]; in series [12]) was inactive. For the same compound, the result (in series [14]; with PC-3 [15]) was inactive. Also, the inhibition entry in the series with PC-9 and in the series on MDA-MB-231 was “Active” throughout. For the same compound, the result in series [5], in [6] and in [17] was Active. The pIC50 with SUM-159-PT [9] is 6.10 to 6.40; in the series on PC-3 [13] (PC-3, 72 h), 6.10 to 6.40.
